These results are taken from patent US20090247576A1, “ANTI-TUMOR AGENT FOR MULTIPLE MYELOMA” (Eisai R & D Management Co., Ltd., priority 2005, published 2009).

Each structure is given as a SMILES string. pIC50: −log10 of the molar value.

This test deals with T1, FGFR3 kinase (human recombinant GST fusion protein) (Homo sapiens, UniProt P22607).
T1 construct: GST; host or cells: Sf9 insect cells, baculovirus
Description: FGFR3 cell free kinase assay (33P-ATP incorporation, FlashPlate, ProQinase). The format is biochemical. The conditions noted are these: test substance: methanesulfonate; 1 μM [γ-33P]-ATP; substrate biotinylated Poly(Glu, Tyr)4:1; 30° C., 80 minutes; 10 points from 10 μM to 0.0003 μM; read-out: FGFR3 kinase-inhibiting activity (IC50). As for the experimental part:
A FGFR3-inhibiting activity of 4-(3-chloro-4-(cyclopropylaminocarbonyl)aminophenoxy)-7-methoxy-6-quinolinecarbox amide was examined by ProQinase (Freiburg, GmbH) on our request. Specifically, the FGFR3-inhibiting activity was determined as follows. FGFR3 kinase was expressed in an insect cell (Spondoptea frugiperda 9 (Sf9)) as human recombinant GST fusion protein by the method of Baculovirus Expression System. The expressed recombinant protein was purified by affinity chromatography using GSH-agarose (from Sigma) or Ni-NTH-agarose (from Qiagen). The purity and identification of the protein were confirmed by SDS-PAGE, silver staining and western blotting using an antibody specific to FGFR3 kinase. Kinase assay was carried out as follows. […] The amount of ^33Pi incorporation was assessed by determining the radioactivity on the plate with a microplate scintillation counter (from Microbeta, Wallac). […] The kinase activity in the presence of the test substance at each concentration was assessed as percentage of the value obtained by subtracting the 0% value from the radioactivity value to the value obtained by subtracting the 0% value from the 100% value.

T1 sequence (P22607 23-806): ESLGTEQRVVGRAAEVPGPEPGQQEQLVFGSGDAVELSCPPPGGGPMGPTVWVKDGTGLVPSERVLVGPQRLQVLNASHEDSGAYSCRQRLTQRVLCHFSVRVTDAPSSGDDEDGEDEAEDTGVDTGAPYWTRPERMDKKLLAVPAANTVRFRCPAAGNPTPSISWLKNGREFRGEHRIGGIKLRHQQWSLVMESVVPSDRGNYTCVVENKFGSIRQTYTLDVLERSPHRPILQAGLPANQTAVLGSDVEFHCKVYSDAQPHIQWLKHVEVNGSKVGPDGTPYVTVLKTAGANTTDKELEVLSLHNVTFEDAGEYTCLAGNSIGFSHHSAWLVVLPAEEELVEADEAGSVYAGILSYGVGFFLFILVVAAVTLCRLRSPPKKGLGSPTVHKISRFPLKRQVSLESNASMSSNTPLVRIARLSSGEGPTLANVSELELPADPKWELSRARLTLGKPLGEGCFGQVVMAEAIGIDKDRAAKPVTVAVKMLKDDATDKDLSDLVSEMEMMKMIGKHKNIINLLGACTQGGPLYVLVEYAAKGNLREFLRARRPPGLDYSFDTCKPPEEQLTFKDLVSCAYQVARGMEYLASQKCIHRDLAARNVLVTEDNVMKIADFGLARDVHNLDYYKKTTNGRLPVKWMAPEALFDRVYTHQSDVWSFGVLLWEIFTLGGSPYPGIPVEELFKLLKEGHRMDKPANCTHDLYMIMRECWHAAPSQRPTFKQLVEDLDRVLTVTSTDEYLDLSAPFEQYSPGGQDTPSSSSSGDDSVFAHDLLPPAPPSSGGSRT

Consider `COc1cc2nccc(Oc3ccc(NC(=O)NC4CC4)c(Cl)c3)c2cc1C(N)=O` [4-(3-chloro-4-(cyclopropylaminocarbonyl)aminophenoxy)-7-methoxy-6-quinolinecarbox amide], for which the pIC50 (commonly −log10 of the IC50, conventionally taken in molar units) was 6.85.
